This assay deals with pain due to nerve injury (SMP). Type of assay: in vivo, human.

Where two headings read alike, the source gives them in different places.

Description: The purpose of this study was to evaluate and compare the safety and efficacy in the application of five topical compositions prepared with three active ingredients and applied singly or in combinations for the purpose of relief of sympathetically mediated pain (SMP).
The study size was a total of thirty four volunteer subjects; fifteen female and nineteen male volunteer subjects. Their ages ranged from 29 to 84 with a mean of 52 years of age. All subjects were diagnosed with severe sympathetically mediated pain.
Three different therapeutically active agents were utilized, alone or in combination, in preparations of lecithin matrix gels.
A different composition was applied each treatment day to the area of maximum pain. The patients were asked to indicate the level of their pain immediately prior to the application of the compositions, and then at intervals of 5, 10, 15 minutes, 1, 2 and 3 hours after receiving treatment. Pain intensity was measured using the scale below.
SIGNIFICANT PAIN RELIEF WAS DEFINED AS >50% PAIN RELIEF SUSTAINED GREATER THAN 2 HOURS. For example, if a given patient rated their pain immediately prior to application of the compositions as “very intense”, they would get a 1.8 score per the scale. […]

Turning to `CN(C)CCC=C1c2ccccc2CCc2ccccc21` [amitriptylline], the “Safety and efficacy in clinical trials at other dosages” value (human, in vivo) was “safe and effective”.

With `CNC1(c2ccccc2Cl)CCCCC1=O` (centres unmarked) [ketamine], where the note is “dosage between 0.05% to 2% of the topical composition”, the “Safety and efficacy in clinical trials at other dosages” value was “safe and effective”.

Source of the values: US20030060463A1, “Preparation of topical regional compositions for the relief of pain” (priority 1995, published 2003).
